Reference: patent publication US10752675B2, “Compounds for treating the remyelination blockade in diseases associated with the expression of HERV-W envelope protein” (GENEURO S.A., priority 2012, dated 2020)
Entries after “also recorded” stand apart in the source; their conditions may differ. Structures can show the parent of a compound that is named as a salt.

What was measured:
[1] = test system: rat OPCs; assay: 3-nitrotyrosine (3-NT) positive rat OPCs after Env stimulation (immunostaining); type: cell-based; settings: for Env dependent formation of 3-NT positive OPCs after pre-incubation: 100 μM for 30 min at 37° C. prior to Env stimulation
Protocol: Rat oligodendrocyte Precursor Cells (OPCs) were purified as previously described^22. OPCs were either kept in proliferation medium (Sato medium supplemented with 10 ng/ml recombinant human basic fibroblast growth factor and 10 ng/ml recombinant human platelet-derived growth factor-AA; R&D Systems, Wiesbaden-Nordenstadt, Germany), whereas differentiation was initiated by Sato medium supplemented with 0.5% fetal calf serum. Human fetal oligodendrocyte precursor cells (hOPC) and respective media were purchased from 3H Biomedical, Uppsala, Sweden. Recombinant Env was produced and purified by PX-Therapeutics (Grenoble, France) according to QC specifications of GeNeuro (Geneva, Switzerland) that supplied the protein batches. Endotoxin levels were <5 EU/mL as measured by the limulus amebocyte lysate (LAL) test. Env stimulation was carried out using three different approaches using i) recombinant full length Env protein diluted in differentiation medium at 10 ng/ml, 100 ng/ml and 1000 ng/ml, ii) recombinant Env protein coated on cell culture dishes at a surface concentration of 17.53 ng/cm^2 and iii) by seeding OPCs on transfected U343 glioblastoma cells overexpressing Env, respectively. Control stimulation experiments were conducted using the recombinant Env buffer preparation (20 mM histidine, 5% (w/v) sucrose, 0.01% (w/v) polysorbate 20, pH 6.0) at equal dilutions. NO concentration measurements in OPC supernatants were performed using a colorimetric nitric oxide assay kit (Merck-Millipore/Calbiochem, Darmstadt, Germany) and the absorbance was determined at 540 nm using an Anthos plate reader 2001 (Anthos labtec instruments, Salzburg, Austria). OPC morphology assessment was carried out using an anti-04 antibody Merck-Millipore/Chemicon, Darmstadt, Germany) taking into account cell diameter and the degree of process branching. […]

[2] = test system: rat OPCs; assay: Myelin protein (CNPase, MBP) expression of Env stimulated rat OPCs (immunostaining); type: cell-based; settings: 100 μM in combination with surface bound recombinant Env for three days
Protocol: (§1) Rat oligodendrocyte Precursor Cells (OPCs) were purified as previously described^22. OPCs were either kept in proliferation medium (Sato medium supplemented with 10 ng/ml recombinant human basic fibroblast growth factor and 10 ng/ml recombinant human platelet-derived growth factor-AA; R&D Systems, Wiesbaden-Nordenstadt, Germany), whereas differentiation was initiated by Sato medium supplemented with 0.5% fetal calf serum. Human fetal oligodendrocyte precursor cells (hOPC) and respective media were purchased from 3H Biomedical, Uppsala, Sweden. Recombinant Env was produced and purified by PX-Therapeutics (Grenoble, France) according to QC specifications of GeNeuro (Geneva, Switzerland) that supplied the protein batches. Endotoxin levels were <5 EU/mL as measured by the limulus amebocyte lysate (LAL) test. […] NO concentration measurements in OPC supernatants were performed using a colorimetric nitric oxide assay kit (Merck-Millipore/Calbiochem, Darmstadt, Germany) and the absorbance was determined at 540 nm using an Anthos plate reader 2001 (Anthos labtec instruments, Salzburg, Austria). […]

[3] = test system: MSRV-Env induced EAE in C57BL/6 mice; assay: EAE clinical score, Example 3.A (EAE induced with MOG and MSRV-Env); type: in vivo; settings: treatment from day 12 to day 29: GNbAc1 200 μg once, L-NAME 600 μg IP and SMT 1 mg IP every 4 days, DMF 1 mg daily in drinking water
Source text: Pathogen free female C57BL/6 nice (6-8 weeks old) were purchased from the Charles River laboratories and maintained at the animal facilities for one week before immunization. One day before immunization, all mice have been weighed, and then evaluated on the Rotarod Test. Rotarod:
(§2) Animals were weighed and clinically scored 5 days per week according to the following criteria: 0=no signs; 1=tail paralysis or hyper-reflex of hind limb(s) or unilateral hind limb weakness; 2=bilateral hind limb or forelimb weakness; 3=plus unilateral paralysis or major deficit; 4=complete hind limb or forelimb paralysis; 5=plus partial paralysis or major deficit of opposite limbs; 6=moribund or dead. These were adapted from standard criteria, in order to reflect the more rapid induction of brain and cervical cord lesions with this model.
(§3) All groups of 6 (six) mice have been first injected s.c. in the neck on day 0 then in the dorsal flanks on day 7 and 14; with 200 μg of MOG/mouse+60 μg of MSRV-Env+IFA.
(§4) For Groups G to H, the treatments with GNbAc1, L-NAME, SMT and DMF alone or together with GNbAc1 with the doses indicated below, have been initiated on day 12 post immunization when the progression of EAE clinical symptoms was already observed. GNbAc1 humanized antibody was administered once, but L-Name or SMT was administered every 4 days until termination of the study on day 29. Regarding Groups E and H, attributed for the treatment with DMF, we have previously determined the volume of daily water consumption by each mouse and it has been determined that (in our condition), each mouse consumed around 3.5 ml drinking water per day. Thus, on the basis of this measurement, a dose of 1 mg DMF+0.08% Methocel per mouse were added to 3.5 ml drinking water daily.
350 ng of pertussis toxin (PTX) per animal was injected (i.p.) in all groups on the same day following each immunogen injection, and replicated 2 days later, as usual in EAE protocols in order to facilitate the migration lymphocytes through the blood-brain barrier.

[4] = test system: rat OPCs; assay: iNOS expression in cultured rat OPCs stimulated with recombinant Env (quantitative RT-PCR); type: cell-based; settings: 2 h pre-incubation (IRAK1/4 inhibitor I 3200 nM; TRIF inhibitory peptide 50 μM; anti-TLR4 antibody 15 μg/ml), then solid recombinant Env 8 h, GAPDH reference
Protocol: as §1, with “Recombinant Env was produced and purified by PX-Therapeutics (Grenoble, France) according to QC specifications of GeNeuro (Geneva, Switzerland) that supplied the protein batches.” left out
Transcription Polymerase Chain Reaction RNA purification from cultured cells was performed using the RNeasy procedure (Qiagen, Hilden, Germany). […] Quantitative determination of gene expression levels was performed on a 7900HT sequence detection system (Life Technologies/Applied Biosystems) using Power SybrGreen universal master mix (Life Technologies/Applied Biosystems). […]

[5] = test system: rat OPCs; assay: NO concentration in OPC supernatants (colorimetric nitric oxide assay); type: cell-based; settings: Env stimulated OPCs; data not shown
Protocol: as §1

[6] = test system: MSRV-Env induced EAE in C57BL/6 mice; assay: Rotarod test, Example 3.A (MSRV-Env induced EAE); type: in vivo; settings: Example 3.A doses, end of study period
Protocol: 9 and 8 days before immunization. Transfer of mice, in their home cages, from the holding room to the experimental room. Mice are habituated to the experimental room for 15 min. During the training period, each mouse was placed on the rotarod at a constant speed (4 rpm) if one mouse was falling, she was back on rotarod, when mice were comfortable on the rotarod, mice were running during 120 sec. All mice were returned to their cage, the speed was increased to 13 rpm and mice were again put on the rotarod for 120 sec. All mice were returned to their cage, the speed was increased to 19 rpm and mice were again put on the rotarod for 120 sec. The experimental-room environment were kept constant between test sessions with respect to temperature, and light intensity.
1 day before each immunization, mice were transferred in their home cages, from the holding room to the experimental room. Mice were habituated to the experimental room for 15 min. Mice then received two trials at 10 increasing speed levels, ranging from 7 to 40 rpm. Individual delays before falling off the rotarod (for the two trials at each speed level) was recorded until 60 sec. Thus, training and performance on the Rotarod system were determined for each animal.
The ROTAROD test results are expressed as kinetics of the mean of individual scores for each group with SEM indicated by bars, for each test day and for each test speed within the discriminating range for neuromotor impairment in present conditions (16 to 29 rpm).
They are calculated for each individual mouse, for each test day and for each speed value, as the relative gain or loss of time on Rotarod (before falling), compared to the first test day at the same speed (D-7, before starting the disease induction in relevant groups). The value is calculated as “Time on Rotarod at dayX”−“Time at Day-7 for the same mouse at the same speed”. Figures illustrate the kinetics for the different groups on the whole study period, for representative discriminative speed values when validated to differentiate ill from healthy animals in our conditions (e.g., too high or too low speed values either made healthy ones fall immediately or ill ones capable to sustain a slow movement).
as §3, §4

[7] = test system: MSRV-Env induced EAE in C57BL/6 mice; assay: EAE clinical score, Example 3.C (GNbAC1 and Sodium Fumarate); type: in vivo; settings: from day 12: GNbAC1 500 μg IP; Sodium Fumarate 10 mg daily in 3.5 ml drinking water; versus isotype control antibody
Source text: as §2

`CC(=O)NC(C(=O)O)C(C)(C)SN=O` (racemic) [SNAP, S-Nitroso-N-acetyl-DL-penicillamine] was tested, and the “3-NT positive OPCs, NO donor positive control” value ([1]; SNAP 100 ng/ml) was “nitrotyrosinylation of almost all OPCs”.
In the case of `COC(=O)[C@H](N)CCCNC(=N)N[N+](=O)[O-]` [D-NAME, D-N^G-nitroarginine methyl ester], the “Env dependent formation of 3-NT positive OPCs after pre-incubation” value [1] is reported as “not affected; also recorded: could not abolish the Env dependent 3-NT induction” and the “MBP expression in Env stimulated OPCs (rescue of differentiation block)” value [2] is reported as “not and not able to rescue myelin expression”.
In the case of `COC(=O)/C=C/C(=O)OC` [DMF, dimethyl fumarate], the “EAE clinical score kinetics and recovery” value [3] is reported as “equivalent recovery at the end of the study”.
`O=C(Nc1nc2ccccc2n1CCN1CCOCC1)c1cccc([N+](=O)[O-])c1` [IRAK-1/4 inhibitor I, 1-(2-(4-Morpholinyl)ethyl)-2-(3-nitrobenzoylamino)benzimidazole] was tested, and the “iNOS expression in presence of Env after pre-incubation with inhibitor” value [4] was “significantly decreased iNOS expression levels” and the “iNOS expression in presence of Env after pre-incubation with inhibitor” value ([4]; listed as IRAK1/4 inhibitor I) was “Reduction of iNOS expression”.
With `COC(=O)[C@@H](N)CCCNC(=N)N[N+](=O)[O-]` [L-NAME, L-N^G-nitroarginine methyl ester] the “Env dependent formation of 3-NT positive OPCs after pre-incubation” value [1] was “significantly decreased; also recorded: reduced to control levels”, the “MBP expression in Env stimulated OPCs (rescue of differentiation block)” value [2] was “rescue MBP expression; also recorded: abolishment of the Env-mediated OPC differentiation block” and the “NO production after pre-incubation with L-NAME” value [5] was “significantly decreased”. The “EAE clinical score kinetics and recovery” value [3] was “irregular recovery”, the “EAE clinical score kinetics and recovery” value ([3]; listed as L-Name) was “lower recovery scores and kinetics than group B” and the “Time on Rotarod at 26 rpm relative to Day -7” value [6] was “improved kinetics and outcome”. The “Time on Rotarod at 29 rpm relative to Day -7” value [6] was “improved kinetics and outcome”.
`CSC(=N)N` [SMT, S-methyl-isothiourea] was tested, and the “EAE clinical score kinetics and recovery” value [3] was “irregular recovery; also recorded: lower recovery scores and kinetics than group B” and the “Time on Rotarod at 23 rpm relative to Day -7” value [6] was “improved kinetics and outcome”.
`O=C([O-])/C=C/C(=O)[O-].[Na+].[Na+]` [Sodium Fumarate, reference compound] was tested, and the “EAE clinical score kinetics and endpoint” value [7] was “did not reveal any significant clinical improvement; also recorded: bad outcome at the end of the study; also recorded: no effect”.
